Source: PubChem BioAssay (NCI)
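Dose response: 5 concentrations. Exposure: 48 h. Format: 96-well plates. Endpoint: linear interpolation; highest concentration if not reached. GI50 = concentration required for 50% inhibition of growth. TGI denotes the concentration required for complete inhibition of growth.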

Experiments:
Experiment in all cases: NCI-60 cell line screen, 48 h; in the data active means GI50 below about 0.43 µM; inactive means the rest
HS 578T breast = tested on: HS 578T breast
SK-MEL-2 melanoma = tested on: SK-MEL-2 melanoma
SF-539 CNS = tested on: SF-539 CNS
PC-3 prostate = tested on: PC-3 prostate
A498 renal = tested on: A498 renal
A549 NSCLC = tested on: A549 NSCLC
COLO 205 colon = tested on: COLO 205 colon
SNB-19 CNS = tested on: SNB-19 CNS
NCI-H460 lung = tested on: NCI-H460 lung
SK-OV-3 ovarian = tested on: SK-OV-3 ovarian
DU-145 prostate = tested on: DU-145 prostate
KM12 colon = tested on: KM12 colon
HOP-62 NSCLC = tested on: HOP-62 NSCLC
HOP-92 NSCLC = tested on: HOP-92 NSCLC
SN12C renal = tested on: SN12C renal
MCF7 breast = tested on: MCF7 breast
NCI-H226 lung = tested on: NCI-H226 lung
HT29 colon = tested on: HT29 colon
SF-295 CNS = tested on: SF-295 CNS
MOLT-4 leukemia = tested on: MOLT-4 leukemia
786-0 renal = tested on: 786-0 renal
K-562 leukemia = tested on: K-562 leukemia
SF-268 CNS = tested on: SF-268 CNS
OVCAR-5 ovarian = tested on: OVCAR-5 ovarian
SNB-75 CNS = tested on: SNB-75 CNS
UO-31 renal = tested on: UO-31 renal
IGROV1 ovarian = tested on: IGROV1 ovarian
MALME-3M melanoma = tested on: MALME-3M melanoma
OVCAR-3 ovarian = tested on: OVCAR-3 ovarian
OVCAR-4 ovarian = tested on: OVCAR-4 ovarian
UACC-257 melanoma = tested on: UACC-257 melanoma
HCT-15 colon = tested on: HCT-15 colon
NCI-H23 lung = tested on: NCI-H23 lung
MDA-MB-231 breast = tested on: MDA-MB-231 breast
NCI-H522 lung = tested on: NCI-H522 lung
RPMI-8226 leukemia = tested on: RPMI-8226 leukemia
HCC-2998 colon = tested on: HCC-2998 colon
T-47D breast = tested on: T-47D breast
MDA-MB-435 = tested on: MDA-MB-435
SK-MEL-28 melanoma = tested on: SK-MEL-28 melanoma
ACHN renal = tested on: ACHN renal
TK-10 renal = tested on: TK-10 renal
U251 CNS = tested on: U251 CNS
BT-549 breast = tested on: BT-549 breast
SW-620 colon = tested on: SW-620 colon
HL-60(TB) leukemia = tested on: HL-60(TB) leukemia
LOX IMVI melanoma = tested on: LOX IMVI melanoma
SK-MEL-5 melanoma = tested on: SK-MEL-5 melanoma
EKVX NSCLC = tested on: EKVX NSCLC
NCI/ADR-RES ovarian = tested on: NCI/ADR-RES ovarian
HCT-116 colon = tested on: HCT-116 colon
OVCAR-8 ovarian = tested on: OVCAR-8 ovarian
RXF 393 renal = tested on: RXF 393 renal
CAKI-1 renal = tested on: CAKI-1 renal
CCRF-CEM leukemia = tested on: CCRF-CEM leukemia
UACC-62 melanoma = tested on: UACC-62 melanoma
SR leukemia = tested on: SR leukemia

CN(C)c1ccc(N=Nc2ccccn2)c(O)c1
1460 nM: TGI (HL-60(TB) leukemia)
929 nM: TGI (RXF 393 renal)
> 34800 nM: TGI (COLO 205 colon)
> 85500 nM: TGI (HS 578T breast)
96900 nM: TGI (SNB-75 CNS)
8670 nM: TGI (NCI-H226 lung)
inactive: GI50 (HS 578T breast) 3530 nM | GI50 (SK-MEL-2 melanoma) 2790 nM | GI50 (A498 renal) 3020 nM | GI50 (A549 NSCLC) 478 nM | GI50 (SNB-19 CNS) 501 nM | GI50 (DU-145 prostate) 481 nM | GI50 (KM12 colon) 465 nM | GI50 (HOP-92 NSCLC) 666 nM | GI50 (NCI-H226 lung) 515 nM | GI50 (OVCAR-5 ovarian) 992 nM | GI50 (SNB-75 CNS) 453 nM | GI50 (MALME-3M melanoma) 1440 nM | GI50 (UACC-257 melanoma) 1240 nM | GI50 (NCI-H23 lung) 564 nM | GI50 (MDA-MB-231 breast) 446 nM | GI50 (MDA-MB-435) 556 nM | GI50 (SK-MEL-28 melanoma) 672 nM | GI50 (SK-MEL-5 melanoma) 433 nM
50200 nM: TGI (HOP-92 NSCLC)
24600 nM: TGI (OVCAR-4 ovarian)
14400 nM: TGI (EKVX NSCLC)
3350 nM: TGI (SK-MEL-5 melanoma)
19100 nM: TGI (A498 renal)
> 87800 nM: TGI (MOLT-4 leukemia)
> 32100 nM: TGI (NCI-H460 lung)
> 54000 nM: TGI (HOP-62 NSCLC)
43900 nM: TGI (TK-10 renal)
> 71700 nM: TGI (HCT-116 colon)
15900 nM: TGI (786-0 renal)
8440 nM: TGI (SF-539 CNS)
> 28300 nM: TGI (SK-OV-3 ovarian)
9040 nM: TGI (UACC-257 melanoma)
> 76900 nM: TGI (KM12 colon)
> 49100 nM: TGI (T-47D breast)
active: GI50 (SF-539 CNS) 355 nM | GI50 (PC-3 prostate) 416 nM | GI50 (COLO 205 colon) 345 nM | GI50 (NCI-H460 lung) 296 nM | GI50 (SK-OV-3 ovarian) 420 nM | GI50 (HOP-62 NSCLC) 311 nM | GI50 (SN12C renal) 396 nM | GI50 (MCF7 breast) 271 nM | GI50 (HT29 colon) 415 nM | GI50 (SF-295 CNS) 359 nM | GI50 (MOLT-4 leukemia) 243 nM | GI50 (786-0 renal) 246 nM | GI50 (K-562 leukemia) 355 nM | GI50 (SF-268 CNS) 318 nM | GI50 (UO-31 renal) 215 nM | GI50 (IGROV1 ovarian) 317 nM | GI50 (OVCAR-3 ovarian) 300 nM | GI50 (OVCAR-4 ovarian) 164 nM | GI50 (HCT-15 colon) 112 nM | GI50 (NCI-H522 lung) 372 nM | GI50 (RPMI-8226 leukemia) 348 nM | GI50 (HCC-2998 colon) 376 nM | GI50 (T-47D breast) 419 nM | GI50 (ACHN renal) 271 nM | GI50 (TK-10 renal) 177 nM | GI50 (U251 CNS) 258 nM | GI50 (BT-549 breast) 391 nM | GI50 (SW-620 colon) 419 nM | GI50 (HL-60(TB) leukemia) 228 nM | GI50 (LOX IMVI melanoma) 258 nM | GI50 (EKVX NSCLC) 200 nM | GI50 (NCI/ADR-RES ovarian) 281 nM | GI50 (HCT-116 colon) 254 nM | GI50 (OVCAR-8 ovarian) 321 nM | GI50 (RXF 393 renal) 229 nM | GI50 (CAKI-1 renal) 344 nM | GI50 (CCRF-CEM leukemia) 97.9 nM | GI50 (UACC-62 melanoma) 369 nM | GI50 (SR leukemia) 123 nM
> 27600 nM: TGI (NCI/ADR-RES ovarian)
> 100000 nM: TGI (SK-MEL-2 melanoma) | TGI (PC-3 prostate) | TGI (A549 NSCLC) | TGI (SNB-19 CNS) | TGI (DU-145 prostate) | TGI (SN12C renal) | TGI (MCF7 breast) | TGI (HT29 colon) | TGI (SF-295 CNS) | TGI (K-562 leukemia) | TGI (SF-268 CNS) | TGI (OVCAR-5 ovarian) | TGI (IGROV1 ovarian) | TGI (MALME-3M melanoma) | TGI (OVCAR-3 ovarian) | TGI (HCT-15 colon) | TGI (NCI-H23 lung) | TGI (MDA-MB-231 breast) | TGI (RPMI-8226 leukemia) | TGI (HCC-2998 colon) | TGI (MDA-MB-435) | TGI (SK-MEL-28 melanoma) | TGI (ACHN renal) | TGI (U251 CNS) | TGI (BT-549 breast) | TGI (SW-620 colon) | TGI (LOX IMVI melanoma) | TGI (OVCAR-8 ovarian) | TGI (CAKI-1 renal) | TGI (SR leukemia)
